The assay has as its system MV4:11 human cancer cell lines. In words: Cellular viability / anti-proliferative activity, CellTiter-Glo, 5 day protocol. The format is cell-based. The conditions noted are these: read-out: GI50 on cellular proliferation of MV4:11 human cancer cell lines. In outline: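 Compounds were tested over 22 two-fold dilutions starting at 30 μM in 0.3% DMSO, with 200 cells per well (7200 cells/mL). Viability was measured by CellTiter-Glo luminescence at day 5.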
For orientation: In ATP-based viability assays light output follows the ATP content of the culture.

[1] abbreviates: Homo sapiens, MV4-11, 120 h, MV4:11 cells, 5 day incubation, CellTiter-Glo, mean of minimum two replicates.

Read-outs that look alike come from different tables or passages of the source.

Take `CCn1cc(-c2cc(Cn3cnn(C)c3=N)cc3c2CCN([C@@H](C)c2cc(OC)ccn2)C3=O)c(C(F)(F)F)n1` [Example 152, (S)-5-(1-ethyl-3-(trifluoromethyl)-1H-pyrazol-4-yl)-7-((5-imino-1-methyl-1,5-dihydro-4H-1,2,4-triazol-4-yl)methyl)-2-(1-(4-methoxypyridin-2-yl)ethyl)-3,4-dihydroisoquinolin-1(2H)-one]: under setting [1], the GI50 was less than 50 nM. On to `CCn1cc(CN2CCc3c(cc(Cn4ccnc4C)cc3-c3cn(C)nc3C(F)(F)F)C2=O)c2ccccc21` [Example 187, 2-((1-Ethyl-1H-indol-3-yl)methyl)-7-((2-methyl-1H-imidazol-1-yl)methyl)-5-(1-methyl-3-(trifluoromethyl)-1H-pyrazol-4-yl)-3,4-dihydroisoquinolin-1(2H)-one], for which, under setting [1], the GI50 amounted to 591 nM. As to `COc1ccnc(CN2CCc3c(cc(Cn4cc(F)sc4=N)cc3-c3cn(C)nc3C(F)(F)F)C2=O)c1` [Example 103, 7-((5-Fluoro-2-iminothiazol-3(2H)-yl)methyl)-2-((4-methoxypyridin-2-yl)methyl)-5-(1-methyl-3-(trifluoromethyl)-1H-pyrazol-4-yl)-3,4-dihydroisoquinolin-1(2H)-one], the GI50 under setting [1] is greater than 938 nM. Consider `COc1cc(CN2CCc3c(cc(Cn4ccccc4=N)cc3-c3ccc(F)cc3C)C2=O)cc(OC)c1` [Example 116, 2-(3,5-Dimethoxybenzyl)-5-(4-fluoro-2-methylphenyl)-7-((2-iminopyridin-1(2H)-yl)methyl)-3,4-dihydroisoquinolin-1(2H)-one], for which the GI50 under setting [1] was 268 nM. The same measure, in the same setting: the figure for `COc1ccnc(CN2CCc3c(cc(CN4CCCC4=N)cc3-c3cn(C)nc3C(F)(F)F)C2=O)c1` [Example 108, 7-((2-Iminopyrrolidin-1-yl)methyl)-2-((4-methoxypyridin-2-yl)methyl)-5-(1-methyl-3-(trifluoromethyl)-1H-pyrazol-4-yl)-3,4-dihydroisoquinolin-1(2H)-one] is 181 nM. With `COc1ccnc(CN2CCc3c(cc(CN4CCCC4=N)cc3-c3ccc(F)cc3C)C2=O)c1` [Example 114, 5-(4-Fluoro-2-methylphenyl)-7-((2-iminopyrrolidin-1-yl)methyl)-2-((4-methoxypyridin-2-yl)methyl)-3,4-dihydroisoquinolin-1(2H)-one], the GI50 under setting [1] worked out at 129 nM. With `COc1cc(CN2CCc3c(OCC(F)(F)F)cc(Cn4ccn(C)c4=N)cc3C2=O)cc(OC)c1` [Example 73, 2-(3,5-Dimethoxybenzyl)-7-((2-imino-3-methyl-2,3-dihydro-1H-imidazol-1-yl)methyl)-5-(2,2,2-trifluoroethoxy)-3,4-dihydroisoquinolin-1(2H)-one], under setting [1], the GI50 is greater than 938 nM. Take `Cc1cc(CN2CCc3c(cc(Cn4ccnc4C)cc3-c3ccccc3)C2=O)ccc1Cl` [Example 5, 2-(4-Chloro-3-methylbenzyl)-7-((2-methyl-1H-imidazol-1-yl)methyl)-5-phenyl-3,4-dihydroisoquinolin-1(2H)-one]: the GI50 under setting [1] was greater than 938 nM.

With `COc1ccnc(CN2CCc3c(cc(Cc4cncn4C)cc3-c3cn(C)nc3C(F)(F)F)C2=O)c1` [Example 131, 2-((4-Methoxypyridin-2-yl)methyl)-7-((1-methyl-1H-imidazol-5-yl)methyl)-5-(1-methyl-3-(trifluoromethyl)-1H-pyrazol-4-yl)-3,4-dihydroisoquinolin-1(2H)-one], for the setting “Homo sapiens, MV4-11, 120 h”, the GI50 was greater than 938 nM.

As for `COc1cc(CN2CCc3c(cc(Cn4ccn(C)c4=N)cc3-c3c(C)nn(C)c3C)C2=O)cc(OC)c1` [Example 64, 2-(3,5-Dimethoxybenzyl)-7-((2-imino-3-methyl-2,3-dihydro-1H-imidazol-1-yl)methyl)-5-(1,3,5-trimethyl-1H-pyrazol-4-yl)-3,4-dihydroisoquinolin-1(2H)-one], under setting [1], the GI50 is greater than 938 nM.

For the compound `CCn1cc(-c2cc(Cn3ccoc3=N)cc3c2CCN(Cc2cc(C)nn2C)C3=O)c(C(F)(F)F)n1` [Example 94, 2-((1,3-Dimethyl-1H-pyrazol-5-yl)methyl)-5-(1-ethyl-3-(trifluoromethyl)-1H-pyrazol-4-yl)-7-((2-iminooxazol-3(2H)-yl)methyl)-3,4-dihydroisoquinolin-1(2H)-one], the GI50 under setting [1] was found to be 159 nM.

`CCn1cc(-c2cc(Cn3ccnc3C)cc3c2CCN([C@H](c2cc(OC)ccn2)C2CC2)C3=O)c(C(F)(F)F)n1` [Example 206, (S)-2-(cyclopropyl(4-methoxypyridin-2-yl)methyl)-5-(1-ethyl-3-(trifluoromethyl)-1H-pyrazol-4-yl)-7-((2-methyl-1H-imidazol-1-yl)methyl)-3,4-dihydroisoquinolin-1(2H)-one]: the GI50 under setting [1] is less than 50 nM. As for `COc1cc(CN2CCc3c(cc(Cn4ccnc4C4CC4)cc3-c3ccc(F)cc3C)C2=O)cc(OC)c1` [Example 16, 7-((2-Cyclopropyl-1H-imidazol-1-yl)methyl)-2-(3,5-dimethoxybenzyl)-5-(4-fluoro-2-methylphenyl)-3,4-dihydroisoquinolin-1(2H)-one], the GI50 under setting [1] is greater than 938 nM.

Regarding `Cn1cc(-c2cc(Cn3ccn(C)c3=N)cc3c2CCN(Cc2cc(C4CC4)nn2C)C3=O)c(C(F)(F)F)n1` [Example 147, 2-((3-Cyclopropyl-1-methyl-1H-pyrazol-5-yl)methyl)-7-((2-imino-3-methyl-2,3-dihydro-1H-imidazol-1-yl)methyl)-5-(1-methyl-3-(trifluoromethyl)-1H-pyrazol-4-yl)-3,4-dihydroisoquinolin-1(2H)-one], the GI50 by setting is: under setting [1], 73 nM; (MV4:11 cells, 5 day incubation, CellTiter-Glo, mean of minimum two replicates) 81 nM.

`Cc1nccn1Cc1cc2c(c(-c3cn(C)nc3C(F)(F)F)c1)CCN(CC1CCC(=O)N(C)C1)C2=O` (centres unmarked) [Example 172, 7-((2-Methyl-1H-imidazol-1-yl)methyl)-5-(1-methyl-3-(trifluoromethyl)-1H-pyrazol-4-yl)-2-((1-methyl-6-oxopiperidin-3-yl)methyl)-3,4-dihydroisoquinolin-1(2H)-one]: under setting [1], the GI50 stood at 221 nM. With `Cc1nccn1Cc1cc2c(c(-c3cn(C)nc3C(F)(F)F)c1)CCN(CC1CCOCC1)C2=O` [Example 173, 7-((2-Methyl-1H-imidazol-1-yl)methyl)-5-(1-methyl-3-(trifluoromethyl)-1H-pyrazol-4-yl)-2-((tetrahydro-2H-pyran-4-yl)methyl)-3,4-dihydroisoquinolin-1(2H)-one], under setting [1], the GI50 was 3910 nM. Regarding `Cc1nccn1Cc1cc2c(c(-c3cn(C)nc3C(F)(F)F)c1)CCN(Cc1ccc3ccccc3n1)C2=O` [Example 176, 7-((2-Methyl-1H-imidazol-1-yl)methyl)-5-(1-methyl-3-(trifluoromethyl)-1H-pyrazol-4-yl)-2-(quinolin-2-ylmethyl)-3,4-dihydroisoquinolin-1(2H)-one], under setting [1], the GI50 was 293 nM. As to `COc1ccnc([C@H](C2CC2)N2CCc3c(cc(Cn4ccnc4)cc3-c3cn(C)nc3C(F)(F)F)C2=O)c1` [Example 252, (S)-7-((1H-Imidazol-1-yl)methyl)-2-(cyclopropyl(4-methoxypyridin-2-yl)methyl)-5-(1-methyl-3-(trifluoromethyl)-1H-pyrazol-4-yl)-3,4-dihydroisoquinolin-1(2H)-one], the GI50 under setting [1] was less than 50 nM. With `CCn1cc(-c2cc(CN3CCN(C)C3=N)cc3c2CCN(Cc2cc(OC)ccn2)C3=O)c(C(F)(F)F)n1` [Example 55, 5-(1-Ethyl-3-(trifluoromethyl)-1H-pyrazol-4-yl)-7-((2-imino-3-methylimidazolidin-1-yl)methyl)-2-((4-methoxypyridin-2-yl)methyl)-3,4-dihydroisoquinolin-1(2H)-one], the GI50 under setting [1] is less than 50 nM.

For the compound `COc1cc(CN2CCc3c(cc(Cn4ccn(C)c4=N)cc3-c3ncc(F)cc3C)C2=O)cc(OC)c1` [Example 59, 2-(3,5-Dimethoxybenzyl)-5-(5-fluoro-3-methylpyridin-2-yl)-7-((2-imino-3-methyl-2,3-dihydro-1H-imidazol-1-yl)methyl)-3,4-dihydroisoquinolin-1(2H)-one], the GI50 under setting [1] came to 274 nM. Turning to `COc1cc(CN2CCc3c(cc(Cn4cnn(C)c4=N)cc3-c3ccc(F)cc3C)C2=O)cc(OC)c1` [Example 121, 2-(3,5-Dimethoxybenzyl)-5-(4-fluoro-2-methylphenyl)-7-((5-imino-1-methyl-1,5-dihydro-4H-1,2,4-triazol-4-yl)methyl)-3,4-dihydroisoquinolin-1(2H)-one], under setting [1], the GI50 worked out at 134 nM. With `COc1ccnc(CN2CCc3c(cc(CN4CCN(C)C4=N)cc3-c3cn(C)nc3C(F)(F)F)C2=O)c1` [Example 43, 7-((2-Imino-3-methylimidazolidin-1-yl)methyl)-2-((4-methoxypyridin-2-yl)methyl)-5-(1-methyl-3-(trifluoromethyl)-1H-pyrazol-4-yl)-3,4-dihydroisoquinolin-1(2H)-one], the GI50 under setting [1] was less than 50 nM.

`CCc1nccn1Cc1cc2c(c(-c3cn(C)nc3C(F)(F)F)c1)CCN([C@@H](C)c1cc(C)cc(C)n1)C2=O` [Example 164, (S)-2-(1-(4,6-Dimethylpyridin-2-yl)ethyl)-7-((2-ethyl-1H-imidazol-1-yl)methyl)-5-(1-methyl-3-(trifluoromethyl)-1H-pyrazol-4-yl)-3,4-dihydroisoquinolin-1(2H)-one]: the GI50 under setting [1] came out at 57 nM.

On to `COc1cc(CN2CCc3c(cc(Cn4cc(C)nc4C)cc3-c3ccc(F)cc3C)C2=O)cc(OC)c1` [Example 18, 2-(3,5-Dimethoxybenzyl)-7-((2,4-dimethyl-1H-imidazol-1-yl)methyl)-5-(4-fluoro-2-methylphenyl)-3,4-dihydroisoquinolin-1(2H)-one], for which the GI50 under setting [1] was greater than 938 nM. In the case of `Cc1cncc([C@H](C)N2CCc3c(cc(Cn4ccnc4C)cc3-c3cn(C)nc3C(F)(F)F)C2=O)c1` [Example 200, (S)-7-((2-Methyl-1H-imidazol-1-yl)methyl)-5-(1-methyl-3-(trifluoromethyl)-1H-pyrazol-4-yl)-2-(1-(5-methylpyridin-3-yl)ethyl)-3,4-dihydroisoquinolin-1(2H)-one], under setting [1], the GI50 is less than 50 nM.

(Values after patent publication US11999716B2, “WDR5 inhibitors and modulators” (priority 2018, dated 2024).)
